What was measured:
Assay in all cases: Minimal inhibitory concentration (M.I.C.), agar dilution method
Settings in all cases: TSA, inoculum 10^7 /ml
S. aureus 1840 = assay type: cell-based, Staphylococcus aureus
Excerpt: (§1) (a) Determination of minimal inhibitory concentrations (Tables 1 to 8):
(§2) Procedure: agar dilution method

S. aureus 209P = assay type: cell-based, Staphylococcus aureus
Excerpt: as §1, §2

E. coli NIHJ JC-2 = assay type: cell-based, Escherichia coli
Excerpt: as §1, §2

E. coli T-7 = assay type: cell-based, Escherichia coli
Excerpt: as §1, §2

E. coli 0-111 = assay type: cell-based, Escherichia coli
Excerpt: The minimal inhibitory concentrations (M.I.C.) of some representative cephalosporin derivatives of this invention as produced by the procedures described in those examples and the minimal inhibitory concentrations of cephalothin [sodium 7-(2-thienylacetamido)-3-acetoxymethyl-3-cephem-4-carboxylate], cephaloridine [7-(2-thienylacetamido)-3-(1-pyridyl)methyl-3-cephem-4-carboxylic acid betaine] and cefazolin [sodium 7-(1H-tetrazol-1-yl)acetamido-3-(2-methyl-1,3,4-thiadiazol-5-yl)thiomethyl-3-cephem-4-carboxylate], which are among the clinically established and commercially available cephalosporins (as described, for example, in the New England Journal of Medicine 294, 24, 1976 and Journal of Pharmaceutical Science 64, 1899, 1975), both against various bacteria, as well as the therapeutic effects of some respresentative cephalosporin derivatives of this invention and of cephaloridine in infected mice, are shown in tables.
as §1, §2

K. pneumoniae DT = assay type: cell-based, Klebsiella pneumoniae
Excerpt: as §1, §2

K. pneumoniae GN 3835 = assay type: cell-based, Klebsiella pneumoniae
Excerpt: as §1, §2

S. marcescens IFO 12648 = assay type: cell-based, Serratia marcescens
Excerpt: as §1, §2

S. marcescens TN 24 = assay type: cell-based, Serratia marcescens
Excerpt: as §1, §2

P. vulgaris GN 4413 = assay type: cell-based, Proteus vulgaris
Excerpt: as §1, §2

P. vulgaris IFO 3988 = assay type: cell-based, Proteus vulgaris
Excerpt: as §1, §2

P. mirabilis GN 4359 = assay type: cell-based, Proteus mirabilis
Excerpt: as §1, §2

P. morganii IFO 3168 = assay type: cell-based, Proteus morganii
Excerpt: as §1, §2

P. rettgeri GN4733 = assay type: cell-based, Proteus rettgeri
Excerpt: as §1, §2

P. rettgeri TN 338 = assay type: cell-based, Proteus rettgeri
Excerpt: as §1, §2

E. cloacae TN 1282 = assay type: cell-based, Enterobacter cloacae
Excerpt: as §1, §2

C. freundii GN 1706 = assay type: cell-based, Citrobacter freundii
Excerpt: as §1, §2

C. freundii GN 99 = assay type: cell-based, Citrobacter freundii
Excerpt: as §1, §2

| Structure (SMILES) | minimal inhibitory concentration (M.I.C.) (S. aureus 1840) | minimal inhibitory concentration (M.I.C.) (S. aureus 209P) | minimal inhibitory concentration (M.I.C.) (E. coli NIHJ JC-2) | minimal inhibitory concentration (M.I.C.) (E. coli T-7) | minimal inhibitory concentration (M.I.C.) (E. coli 0-111) | minimal inhibitory concentration (M.I.C.) (K. pneumoniae DT) | minimal inhibitory concentration (M.I.C.) (K. pneumoniae GN 3835) | minimal inhibitory concentration (M.I.C.) (S. marcescens IFO 12648) | minimal inhibitory concentration (M.I.C.) (S. marcescens TN 24) | minimal inhibitory concentration (M.I.C.) (P. vulgaris GN 4413) | minimal inhibitory concentration (M.I.C.) (P. vulgaris IFO 3988) | minimal inhibitory concentration (M.I.C.) (P. mirabilis GN 4359) | minimal inhibitory concentration (M.I.C.) (P. morganii IFO 3168) | minimal inhibitory concentration (M.I.C.) (P. rettgeri GN4733) | minimal inhibitory concentration (M.I.C.) (P. rettgeri TN 338) | minimal inhibitory concentration (M.I.C.) (E. cloacae TN 1282) | minimal inhibitory concentration (M.I.C.) (C. freundii GN 1706) | minimal inhibitory concentration (M.I.C.) (C. freundii GN 99) |
| --- | --- | --- | --- | --- | --- | --- | --- | --- | --- | --- | --- | --- | --- | --- | --- | --- | --- | --- |
| CNC(=O)O/N=C(\C(=O)NC1C(=O)N2C(C(=O)O)=C(CSc3nnc(C)s3)CSC12)c1csc(=N)[nH]1 (stereo not drawn) [Example II - 5, sodium 7-[2-(2-imino-4-thiazolin-4-yl)-2-methylcarbamoyloximinoacetamido]-3-(2-methyl-1,3,4-thiadiazol-5-yl)thiomethyl-3-cephem-4-carboxylate (syn-isomer)] | 3.13 | 3.13 | 0.39 | 3.13 | 0.1 | 0.1 | 0.78 | 3.13 | 0.78 | 12.5 | 0.39 | 0.78 | 0.39 | 0.78 | ≤ 0.05 | 1.56 | 1.56 | 0.39 |
| CNC(=O)O/N=C(\C(=O)NC1C(=O)N2C(C(=O)O)=C(C)CSC12)c1csc(=N)[nH]1 (stereo not drawn) [Example II - 6] | 50 | 50 | 3.13 | 6.25 | 0.78 | 0.78 | 1.56 | 50 | 100 | 12.5 | 1.56 | 0.78 | 12.5 | 0.2 | 0.024 | 50 | 12.5 | 6.25 |
| CCNC(=O)O/N=C(\C(=O)NC1C(=O)N2C(C(=O)O)=C(COC(C)=O)CSC12)c1csc(=N)[nH]1 (stereo not drawn) [Example II - 7] | 3.13 | 1.56 | 0.39 | 1.56 | 0.024 | 0.05 | 0.39 | 6.25 | 6.25 | 6.25 | 0.2 | 0.1 | 1.56 | 0.1 | ≤ 0.012 | 12.5 | 0.78 | 0.39 |
| CCNC(=O)O/N=C(\C(=O)NC1C(=O)N2C(C(=O)O)=C(COC(N)=O)CSC12)c1csc(=N)[nH]1 (stereo not drawn) [Example II - 8] | 3.13 | 3.13 | 0.2 | 1.56 | 0.024 | 0.05 | 0.2 | 6.25 | 6.25 | 100 | 0.1 | 0.1 | 3.13 | 0.05 | ≤ 0.012 | 12.5 | 0.39 | 0.1 |
| CCNC(=O)O/N=C(\C(=O)NC1C(=O)N2C(C(=O)O)=C(CSc3nnnn3C)CSC12)c1csc(=N)[nH]1 (stereo not drawn) [Example II - 9] | 3.13 | 1.56 | 0.39 | 3.13 | 0.05 | 0.1 | 0.78 | 3.13 | 3.13 | 25 | 0.2 | 0.39 | 1.56 | 0.2 | ≤ 0.012 | 6.25 | 0.78 | 0.2 |
| CCNC(=O)O/N=C(\C(=O)NC1C(=O)N2C(C(=O)O)=C(CSc3nnc(C)s3)CSC12)c1csc(=N)[nH]1 (stereo not drawn) [Example II - 10] | 1.56 | 0.78 | 0.78 | 3.13 | 0.2 | 0.2 | 0.78 | 3.13 | 1.56 | 12.5 | 0.39 | 0.78 | 0.39 | 0.78 | ≤ 0.05 | 3.13 | 0.78 | 0.39 |
| CCNC(=O)O/N=C(\C(=O)NC1C(=O)N2C(C(=O)O)=C(C)CSC12)c1csc(=N)[nH]1 (stereo not drawn) [Example II - 11] | 25 | 25 | 6.25 | 12.5 | 1.56 | 1.56 | 3.13 | 100 | 100 | 50 | 3.13 | 1.56 | 25 | 0.39 | 0.05 | 25 | 12.5 | 6.25 |
